Test results as given in the NIST ThermoML archive (doi:10.1021/je2007764).
Numbers after ± are expanded uncertainties.

Assay: xn = mol fraction of the nth substance listed
Details: Fluid (supercritical or subcritical phases), Buoyancy - hydrostatic balance with magnetic suspension - one sinker

[C-]#[O+] [carbon monoxide] + N#N
Details	mass density [kg/m3]
250.04 K, 996.97 kPa, x1 = 0.04999	13.537 ± 0.017
250.04 K, 1999 kPa, x1 = 0.04999	27.34 ± 0.033
250.04 K, 4009.9 kPa, x1 = 0.04999	55.503 ± 0.068
250.04 K, 6016.9 kPa, x1 = 0.04999	84.044 ± 0.1
250.04 K, 16000 kPa, x1 = 0.04999	220.89 ± 0.27
250.05 K, 969.13 kPa, x1 = 0.1002	13.157 ± 0.016
250.05 K, 999.78 kPa, x1 = 0.1002	13.577 ± 0.017
250.05 K, 2004.3 kPa, x1 = 0.1002	27.416 ± 0.034
250.05 K, 3998.8 kPa, x1 = 0.1002	55.373 ± 0.067
250.05 K, 7998.5 kPa, x1 = 0.04999	112.326 ± 0.14
250.05 K, 8999 kPa, x1 = 0.1002	126.622 ± 0.15
250.05 K, 9999.8 kPa, x1 = 0.04999	140.653 ± 0.17
250.05 K, 11001 kPa, x1 = 0.1002	154.742 ± 0.19
250.05 K, 11998 kPa, x1 = 0.04999	168.354 ± 0.2
250.05 K, 13033 kPa, x1 = 0.1002	182.506 ± 0.22
250.05 K, 14004 kPa, x1 = 0.04999	195.251 ± 0.24
250.05 K, 15003 kPa, x1 = 0.1002	208.407 ± 0.25
250.05 K, 17999 kPa, x1 = 0.04999	245.259 ± 0.3
250.05 K, 18474 kPa, x1 = 0.04999	250.84 ± 0.3
250.06 K, 3032.9 kPa, x1 = 0.1002	41.76 ± 0.051
250.06 K, 5043.2 kPa, x1 = 0.1002	70.198 ± 0.085
250.06 K, 5999.3 kPa, x1 = 0.1002	83.836 ± 0.1
250.06 K, 6999.1 kPa, x1 = 0.1002	98.128 ± 0.12
250.06 K, 7998.3 kPa, x1 = 0.1002	112.391 ± 0.14
250.06 K, 9998.8 kPa, x1 = 0.1002	140.734 ± 0.17
250.06 K, 11998 kPa, x1 = 0.1002	168.471 ± 0.2
250.06 K, 13998 kPa, x1 = 0.1002	195.325 ± 0.24
250.06 K, 15999 kPa, x1 = 0.1002	221.035 ± 0.27
250.06 K, 16706 kPa, x1 = 0.1002	229.835 ± 0.28
250.06 K, 18000 kPa, x1 = 0.1002	245.432 ± 0.3
250.06 K, 19962 kPa, x1 = 0.1002	268.002 ± 0.33
275.01 K, 997.91 kPa, x1 = 0.1002	12.276 ± 0.015
275.01 K, 1984.4 kPa, x1 = 0.1002	24.502 ± 0.03
275.01 K, 3998.5 kPa, x1 = 0.1002	49.641 ± 0.061
275.01 K, 5998.9 kPa, x1 = 0.1002	74.708 ± 0.091
275.01 K, 7999.4 kPa, x1 = 0.1002	99.667 ± 0.12
275.02 K, 990.79 kPa, x1 = 0.04999	12.187 ± 0.015
275.02 K, 1996 kPa, x1 = 0.04999	24.643 ± 0.03
275.02 K, 4000.1 kPa, x1 = 0.04999	49.643 ± 0.061
275.02 K, 9999.5 kPa, x1 = 0.1002	124.305 ± 0.15
275.02 K, 11999 kPa, x1 = 0.04999	148.339 ± 0.18
275.02 K, 12004 kPa, x1 = 0.1002	148.483 ± 0.18
275.02 K, 13997 kPa, x1 = 0.04999	171.74 ± 0.21
275.02 K, 14001 kPa, x1 = 0.1002	171.88 ± 0.21
275.02 K, 15997 kPa, x1 = 0.04999	194.336 ± 0.24
275.02 K, 15998 kPa, x1 = 0.1002	194.459 ± 0.24
275.02 K, 17997 kPa, x1 = 0.1002	216.135 ± 0.26
275.02 K, 18198 kPa, x1 = 0.04999	218.123 ± 0.27
275.02 K, 19888 kPa, x1 = 0.1002	235.72 ± 0.29
275.02 K, 19917 kPa, x1 = 0.04999	235.882 ± 0.29
275.03 K, 6038.6 kPa, x1 = 0.04999	75.17 ± 0.091
275.03 K, 8036.6 kPa, x1 = 0.04999	100.073 ± 0.12
275.03 K, 10062 kPa, x1 = 0.04999	124.995 ± 0.15
299.96 K, 1003.8 kPa, x1 = 0.04999	11.294 ± 0.014
299.96 K, 2981.9 kPa, x1 = 0.04999	33.609 ± 0.041
299.96 K, 4997.9 kPa, x1 = 0.04999	56.34 ± 0.069
299.96 K, 6998.3 kPa, x1 = 0.04999	78.744 ± 0.096
299.96 K, 9086.5 kPa, x1 = 0.04999	101.826 ± 0.12
299.96 K, 11000 kPa, x1 = 0.04999	122.587 ± 0.15
299.96 K, 12998 kPa, x1 = 0.04999	143.747 ± 0.17
299.96 K, 14954 kPa, x1 = 0.04999	163.889 ± 0.2
299.97 K, 986.71 kPa, x1 = 0.04999	11.101 ± 0.014
299.97 K, 992.98 kPa, x1 = 0.1002	11.173 ± 0.014
299.97 K, 1001.9 kPa, x1 = 0.1002	11.274 ± 0.014
299.97 K, 1989.8 kPa, x1 = 0.1002	22.417 ± 0.027
299.97 K, 1993.4 kPa, x1 = 0.04999	22.457 ± 0.028
299.97 K, 2993.6 kPa, x1 = 0.1002	33.744 ± 0.041
299.97 K, 3975 kPa, x1 = 0.04999	44.812 ± 0.055
299.97 K, 3998.4 kPa, x1 = 0.1002	45.092 ± 0.055
299.97 K, 5020.8 kPa, x1 = 0.1002	56.608 ± 0.069
299.97 K, 5999.2 kPa, x1 = 0.1002	67.6 ± 0.082
299.97 K, 6020.2 kPa, x1 = 0.04999	67.811 ± 0.083
299.97 K, 7034 kPa, x1 = 0.1002	79.163 ± 0.096
299.97 K, 8024.8 kPa, x1 = 0.04999	90.132 ± 0.11
299.97 K, 9073.7 kPa, x1 = 0.1002	101.718 ± 0.12
299.97 K, 9997.1 kPa, x1 = 0.1002	111.8 ± 0.14
299.97 K, 10017 kPa, x1 = 0.04999	111.971 ± 0.14
299.97 K, 11008 kPa, x1 = 0.1002	122.717 ± 0.15
299.97 K, 11999 kPa, x1 = 0.1002	133.29 ± 0.16
299.97 K, 13003 kPa, x1 = 0.1002	143.858 ± 0.17
299.97 K, 13997 kPa, x1 = 0.1002	154.176 ± 0.19
299.97 K, 14807 kPa, x1 = 0.1002	162.461 ± 0.2
299.97 K, 15370 kPa, x1 = 0.1002	168.159 ± 0.2
299.98 K, 7997.5 kPa, x1 = 0.1002	89.866 ± 0.11
299.98 K, 11889 kPa, x1 = 0.04999	132.063 ± 0.16
299.98 K, 13997 kPa, x1 = 0.04999	154.113 ± 0.19
299.98 K, 15997 kPa, x1 = 0.04999	174.35 ± 0.21
299.98 K, 16109 kPa, x1 = 0.1002	175.535 ± 0.21
299.98 K, 17997 kPa, x1 = 0.04999	193.879 ± 0.23
299.98 K, 17999 kPa, x1 = 0.1002	193.977 ± 0.23
299.98 K, 19830 kPa, x1 = 0.1002	211.228 ± 0.26
299.98 K, 19957 kPa, x1 = 0.04999	212.314 ± 0.26
324.97 K, 13743 kPa, x1 = 0.04999	137.825 ± 0.17
324.98 K, 996.21 kPa, x1 = 0.04999	10.328 ± 0.013
324.98 K, 997.48 kPa, x1 = 0.1002	10.342 ± 0.013
324.98 K, 1970.2 kPa, x1 = 0.1002	20.421 ± 0.025
324.98 K, 1981.3 kPa, x1 = 0.04999	20.531 ± 0.025
324.98 K, 2991.3 kPa, x1 = 0.04999	30.967 ± 0.038
324.98 K, 3998.5 kPa, x1 = 0.1002	41.357 ± 0.05
324.98 K, 4008.5 kPa, x1 = 0.04999	41.449 ± 0.051
324.98 K, 4980 kPa, x1 = 0.04999	51.417 ± 0.063
324.98 K, 5960.8 kPa, x1 = 0.04999	61.428 ± 0.075
324.98 K, 6000 kPa, x1 = 0.1002	61.847 ± 0.075
324.98 K, 7025.8 kPa, x1 = 0.04999	72.228 ± 0.088
324.98 K, 7991 kPa, x1 = 0.04999	81.935 ± 0.1
324.98 K, 7999.4 kPa, x1 = 0.1002	82.05 ± 0.1
324.98 K, 8998.7 kPa, x1 = 0.04999	91.988 ± 0.11
